From a melting point compilation (Tetko et al.)

Settings: a range is the spread between reports

| melting point [°C] | Structure (SMILES) |
| --- | --- |
| 102 to 104 | COC(=O)/C=C/C(=O)OC |
| 44 to 45.5 | CCN1C(=O)C=CC1=O |
| 38 to 39 | Nc1ccccc1C=O |
| 50 to 51 | O=C(Cl)c1ccc2ccccc2c1 |
| 148 to 149 | COc1cc(OC)c2ccc(=O)oc2c1 |
| 61 to 62 | c1ccc(Nc2cccc3ccccc23)cc1 |
| 47 to 50 | CC(=O)c1cc(C)ccc1O |
| 76 to 77.5 | O=C(c1ccccc1)c1ccc(Cl)cc1 |
| -52 to -50.9 | O=C1CCC1 |
| 173 to 178 | CC12CCC3c4ccc(O)cc4CCC3C1CCC2O (stereo not drawn) |
| 67 to 69.5 | C[Si](c1ccccc1)(c1ccccc1)c1ccccc1 |
| -66.3 to -66 | C=CCCCCCCCC |
| 6 to 10 | OCc1cccc(Oc2ccccc2)c1 |
| 141 to 142 | O=Cc1ccc(O)c([N+](=O)[O-])c1 |
| -102 | CSC(C)C |
| 126 to 127 | O=[N+]([O-])c1ccc(Br)cc1 |
| 257 to 258 | NS(=O)(=O)c1cc(C(=O)O)ccc1Cl |
| 244 to 247 | O=C(O)/C=C/c1ccccc1[N+](=O)[O-] |
| 77 to 80 | CC(=O)Nc1cccc(Cl)c1 |
| 33 to 36 | CC(C)(C)C(=O)O |
| 146 to 147 | O=C(O)C(c1ccccc1)c1ccccc1 |
| -13 to -12 | C=CCCCCCCCCCCCC |

| melting point [°C] | Structure (SMILES) |
| --- | --- |
| 198 to 200 | Nc1ccc(C(=O)NCC(=O)O)cc1 |
| 6 to 6.5 | CC(C)(C)CC(=O)O |
| -14 to -10 | CC(C)C(C)(C)O |
| -113 | CCCCC(C)CCC (stereo not drawn) |
| -33.3 to -33 | CC1(C)CCCCC1 |
| 9.9 to 10 | CCCCCCCCCCCCCCC |
| 172 to 173 | N#Cc1ccccc1C(N)=O |
| 60 to 62.5 | O=C(O)CCBr |
| 112 | Nc1ccc(Br)cc1[N+](=O)[O-] |
| -41 to -40.7 | CCCCC(O)CCC (stereo not drawn) |
| 57 to 58 | O=C1CCCCC1c1ccccc1 (stereo not drawn) |
| 212 to 214 | CC(C(=O)O)c1ccc(N2Cc3ccccc3C2=O)cc1 (stereo not drawn) |
| -90.4 to -90 | CC1=C(C)CCC1 |
| 112 to 115 | O=C(O)c1ccccc1-c1ccccc1 |
| 12.5 to 13.5 | C=CC(=O)O |
| -91 to -90.6 | C1CCC1 |
| 86 to 87 | CC(CC(=O)O)CC(=O)O |
| 96 to 100 | CN(C)c1ccc(C=Nc2ccccc2)cc1 |
| 218 | Oc1cc(O)cc(O)c1 |
| -51.4 to -51 | c1ccc2c(c1)CCC2 |
| 158 | Cc1ccc(-c2cc(C(F)(F)F)nn2-c2ccc(S(N)(=O)=O)cc2)cc1 |
| -141 | C=CCCC=C |

| melting point [°C] | Structure (SMILES) |
| --- | --- |
| 54.5 to 56.5 | CC(C)(C)c1ccc(O)c(C(C)(C)C)c1 |
| 16 to 19 | ClC(c1ccccc1)c1ccccc1 |
| 30 to 31.9 | COC(=O)CCCCCCCCCCC(=O)OC |
| 37 to 38.5 | O=[N+]([O-])c1cccc(I)c1 |
| -0.1 to 0.5 | CCCCCCC=CCCCCCCCC(=O)O |
| -116 to -115 | C=COCC |
| 10 to 10.7 | BrCCCOc1ccccc1 |
| 67 to 68.5 | O=C(c1ccccc1)C(Cl)c1ccccc1 (stereo not drawn) |
| 7 to 8 | CCOC(=O)c1ccc(OC)cc1 |
| 62 to 66.5 | CCCCCCCCCCCCCCCC(=O)OCC(COC(=O)CCCCCCCCCCCCCCC)OC(=O)CCCCCCCCCCCCCCC |
| 80 to 83 | O=C1C(Br)=CC(=NCl)C=C1Br |
| 208 | CC(C)(C)c1cc(C(=O)O)cc(C(C)(C)C)c1O |
| 129 to 131 | O=C(O)CCSCCC(=O)O |
| 52.8 to 54 | O=C1C=CC(=O)O1 |
| -135 | C1=CCCC1 |
| -84.1 to -84 | CC1=C(C)CCCC1 |
| 43.5 to 46 | O=Cc1ccccc1[N+](=O)[O-] |
| 42 to 42.5 | O=C(OC(=O)c1ccccc1)c1ccccc1 |
| -169 | C=C |
| 48 to 52.3 | C#CC(C)(O)c1ccccc1 (stereo not drawn) |
| 93 to 94 | c1ccc(C(c2ccccc2)c2ccccc2)cc1 |
| -79 to -74.8 | CCCCOCCO |

| melting point [°C] | Structure (SMILES) |
| --- | --- |
| 125 to 126 | N#Cc1ccc(I)cc1 |
| 86 to 87 | COc1cc(C#N)ccc1O |
| 162 to 163 | O=C(O)c1ccccc1I |
| 281 to 282 | CC12CCC3c4ccc(O)cc4CCC3C1CC(O)C2O (stereo not drawn) |
| 46 to 48 | CCC(=O)c1ccc(Br)cc1 |
| -44 to -43.8 | Cc1ccc(C)c(C)c1 |
| 21 to 25.9 | OC1CCCCC1 |
| 150 | O=c1[nH]c(=O)n(C2CC(O)C(CO)O2)cc1F (stereo not drawn) |
| 44.5 to 46 | COc1cccc(C#N)c1OC |
| -140 | C=CCCCC |
| -61 to -60.5 | CCCCCCCCC(=O)Cl |
| 29 to 33 | CC(=O)CCC(=O)O |
| 27 to 27.5 | NCCCCN |
| 29 to 33 | CC(=O)c1ccco1 |
| 79.5 to 80 | O=C1CCC(c2ccccc2)CC1 |
| 23 to 25 | CCCCCCCCCCCC(C)O (stereo not drawn) |
| 48 to 53 | N#CCc1ccc(I)cc1 |
| -7.4 to -6 | FC(F)(F)c1ccccc1Cl |
| 24 to 28 | ClCCOc1ccccc1 |
| 140 to 141 | COc1cc([N+](=O)[O-])ccc1N |
| 29 to 32 | CS(=O)c1ccccc1 (stereo not drawn) |
| 57 to 58 | CCOC(=O)CNc1ccccc1 |

| melting point [°C] | Structure (SMILES) |
| --- | --- |
| 60 to 61 | OCC1CCCNC1 (stereo not drawn) |
| 31 to 32 | COc1cccc(Cl)c1Cl |
| -43 to -42.8 | CCc1ccc(CC)cc1 |
| 3.5 to 4 | O=[N+]([O-])c1c(F)cc(F)cc1F |
| -116 to -115 | CCCCOC |
| 143 to 144 | Cc1ncc[nH]1 |
| -0.2 to 0 | Cc1ccccc1-c1ccccc1 |
| 28 to 30.5 | Clc1sc(Cl)c(Cl)c1Cl |
| 65 to 66 | O=C(O)C(=O)c1ccccc1 |
| 123 to 128 | OC1c2ccccc2Oc2ccccc21 |
| 51 to 54 | Nc1cc(Br)ccc1Br |
| 72.5 to 73 | NC(=O)C(F)(F)F |
| 181 to 184 | O=C(O)c1cccc([N+](=O)[O-])c1Cl |
| 231 | c1ccc(CNc2ncnc3nc[nH]c23)cc1 |
| 221 to 225 | COc1ccc(-c2cc(=O)c3c(O)c(OC)c(O)cc3o2)cc1 |
| 21 to 22 | c1cncnc1 |
| -40 to -39 | CCC(=O)CC |
| 8 to 8.2 | CN1CCN(C)C1=O |
| 69 to 70 | CCCCCCC(O)C(=O)O (stereo not drawn) |
| 80 to 83 | COC(=O)c1ccc(Cl)c([N+](=O)[O-])c1 |
| 33 to 34.5 | C[C@H](O)[C@@H](C)O |
| 42 to 43 | O=C(c1ccccc1)c1ccccn1 |

| melting point [°C] | Structure (SMILES) |
| --- | --- |
| -51.9 to -51 | O=C1CCCC1 |
| -94 to -93 | CCCN(CCC)CCC |
| 175 to 180 | CCNC(=O)C(=O)NCC |
| 69 to 70 | c1ccc(CN(Cc2ccccc2)c2ccccc2)cc1 |
| -3 to -2 | C=CCCCCCCCCCO |
| 119 to 120 | O=C1CCC(=O)O1 |
| 46 to 47 | CN1C(=O)OC(C)(C)C1=O |
| 12 to 15 | CCCCCCCCCC(C)=O |
| 358 to 359 | O=C(O)c1ccc(C(=O)O)s1 |
| 23 to 24 | CCCCCc1ccc(O)cc1 |
| 154 to 155 | Oc1ccc(N=Nc2ccccc2)cc1 |
| 46 to 46.5 | Cc1cc(Cl)nc(Cl)n1 |
| 89 to 90 | COc1cc(O)ccc1O |
| 74 to 75 | CCCOC(=O)c1ccc(N)cc1 |
| 173 to 175 | Nc1cccc(C(=O)O)c1 |
| 266 to 270 | c1ccc2c(c1)ccc1cc3c(ccc4ccccc43)cc12 |
| 39 to 40 | CCCCCCCCCCCCCCO |
| 151 to 154 | O/N=C(\c1ccccc1)C(O)c1ccccc1 (stereo not drawn) |
| 122 | OCC(O)C(O)CO (stereo not drawn) |
| 219 | CCC1(O)CC2CN(CCc3c([nH]c4ccccc34)C(C(=O)OC)(c3cc4c(cc3OC)N(C=O)C3C(O)(C(=O)OC)C(OC(C)=O)C5(CC)C=CCN6CCC43C65)C2)C1 (stereo not drawn) |
| -46 to -44 | CCCCCCCCI |
| -35 to -33 | CC(C)CCC(=O)O |

| Structure (SMILES) | melting point [°C] |
| --- | --- |
| Nc1ccc(Cc2ccc(N)cc2)cc1 | 90 to 92.5 |
| Clc1cc(Cl)c(-c2ccccc2)cc1Cl | 76 to 78 |
| c1ccc(P(c2ccccc2)c2ccccc2)cc1 | 80 to 80.5 |
| C1CCc2nnnn2CC1 | 57.5 to 60 |
| O=S(=O)(c1ccccc1)c1ccccc1 | 128 |
| CCCCP(CCCC)CCCC | -65 to -60 |
| NNc1ccccc1 | 19 to 19.6 |
| CCN=c1nc(Cl)[nH]c(=NC(C)C)[nH]1 | 172 to 177 |
| ClCc1ccccc1Cl | -17 to -13 |
| ICCCCI | 5.8 to 6 |
| O=Cc1ccc(Cl)cc1Cl | 71 to 73 |
| C=Cc1ccc(Br)cc1 | 5 to 7.7 |
| Nc1ccc([N+](=O)[O-])cc1C(=O)c1ccccc1 | 163 to 167 |
| BrCCBr | 9.9 to 10 |
| O=[N+]([O-])c1ccc2c3c(cccc13)CC2 | 103 to 104 |
| C1CO1 | -112 to -111 |
| C=CCC1(C(C)CCC)C(=O)NC(=O)NC1=O (stereo not drawn) | 95 to 100 |
| Cc1cc(O)ccc1Cl | 66 to 67 |

| Structure (SMILES) | melting point [°C] |
| --- | --- |
| N#CSCc1ccccc1 | 42 to 43 |
| O=C(O)C(Cl)(Cl)Cl | 56 to 57.5 |
| Cc1c2ccccc2cc2ccccc12 | 78 to 81.5 |
| OCC(Br)(Br)Br | 79 to 81 |
| Cc1cccc(C)c1[N+](=O)[O-] | 15 to 16 |
| O=C(Cl)CCC(=O)Cl | 17 to 20 |
| CC(=O)c1ccc(Cl)cc1 | 18 to 20 |
| Cc1ccc(N)cc1C | 50 to 51 |
| ClCC1CO1 (stereo not drawn) | -57.2 to -57 |
| CC(C)(c1ccccc1)c1ccc(O)cc1 | 70 to 75 |
| N#Cc1nn(-c2c(Cl)cc(C(F)(F)F)cc2Cl)c(N)c1S(=O)C(F)(F)F (stereo not drawn) | 199 to 200 |
| COc1ccc(C(=O)O)cc1OC | 180 to 181 |
| NNc1c(F)c(F)c(F)c(F)c1F | 75 to 76 |
| CCOS(=O)(=O)OCC | -25 to -24 |
| NCCc1c[nH]c2ccccc12 | 114 to 118 |
| O=C(O)CCl | 61.5 to 63 |
| CC(C)C#N | -72 to -71.5 |
| ClC(Cl)(Cl)Br | -6 to -5.7 |
